# According to patent US20240158446A1, “CYCLIC COMPOUND HAVING SELECTIVE INHIBITORY ACTION ON KRAS OVER HRAS AND NRAS” (CHUGAI SEIYAKU KABUSHIKI KAISHA, priority 2021, published 2024):
# What was measured:
# [1] = target: GDP-bound KRAS wild-type protein (Homo sapiens, UniProt P01116); test: Binding to KRAS by surface plasmon resonance (SPR), Single Cycle Kinetics; settings: SPR Single Cycle Kinetics, GDP-bound KRAS wild-type protein, 1:1 binding model; read-out: KRAS KD
# [2] = target: GDP-bound NRAS wild-type protein (Homo sapiens, UniProt P01111); test: Binding to NRAS by surface plasmon resonance (SPR), Single Cycle Kinetics; settings: SPR, GDP-bound NRAS wild-type protein vs GDP-bound KRAS wild-type protein
# Chain of GDP-bound NRAS wild-type protein (P01111 whole entry): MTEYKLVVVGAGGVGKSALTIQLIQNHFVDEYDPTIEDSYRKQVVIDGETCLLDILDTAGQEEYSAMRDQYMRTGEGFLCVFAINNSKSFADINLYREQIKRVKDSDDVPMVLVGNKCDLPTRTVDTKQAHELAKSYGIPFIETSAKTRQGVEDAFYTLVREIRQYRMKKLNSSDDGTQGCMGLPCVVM
# [3] = target: GDP-bound HRAS wild-type protein (Homo sapiens, UniProt P01112); test: Binding to HRAS by surface plasmon resonance (SPR), Single Cycle Kinetics; settings: SPR, GDP-bound HRAS wild-type protein vs GDP-bound KRAS wild-type protein
# Chain of GDP-bound HRAS wild-type protein (P01112 whole entry): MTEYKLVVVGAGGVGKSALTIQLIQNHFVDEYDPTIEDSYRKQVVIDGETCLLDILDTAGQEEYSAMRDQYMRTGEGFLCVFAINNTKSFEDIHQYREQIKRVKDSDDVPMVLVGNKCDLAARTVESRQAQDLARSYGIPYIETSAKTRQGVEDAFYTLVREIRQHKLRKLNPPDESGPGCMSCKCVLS
# Chain of GDP-bound KRAS wild-type protein (P01116 whole entry): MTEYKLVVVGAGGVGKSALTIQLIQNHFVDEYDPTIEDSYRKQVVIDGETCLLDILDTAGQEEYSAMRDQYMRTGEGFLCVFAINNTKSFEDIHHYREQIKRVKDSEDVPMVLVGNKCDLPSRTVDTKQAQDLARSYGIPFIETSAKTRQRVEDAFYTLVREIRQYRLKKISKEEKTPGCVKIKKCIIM
SMILES,Kd [1] [pM],NRAS/KRAS (ratio of KD value with respect to NRAS to KD value with respect to KRAS) [2],HRAS/KRAS (ratio of KD value with respect to HRAS to KD value with respect to KRAS) [3]
CCO[C@@H]1C[C@H]2C(=O)NC3(CCC3)C(=O)N(C)[C@@H](C3CCCC3)C(=O)N(CCC3CCCC3)[C@H](C(=O)N3CCOCC3)CC(=O)N(C)[C@@H](CC(C)C)C(=O)N[C@@H]([C@@H](C)CC)C(=O)N(C)CC(=O)N(C)[C@H]3CCCCN(C3=O)[C@@H](Cc3ccc(C(F)(F)F)cc3)C(=O)N(C)CC(=O)N[C@@H](CCc3cc(F)c(C(F)(F)F)c(F)c3)C(=O)N2C1 [PP0651],600,B (a compound having 3 or more and less than 10 is denoted as B),B (a compound having 3 or more and less than 10 is denoted as B)
CC[C@H](C)[C@@H]1NC(=O)[C@H](CC)N(C)C(=O)C[C@@H](C(=O)N(C)C)N(C)C(=O)[C@H](C2CCCC2)N(C)C(=O)C2(CCC2)NC(=O)[C@@H]2CCCCN2C(=O)[C@H](CCc2cc(F)c(C(F)(F)F)c(F)c2)NC(=O)CN(C)C(=O)[C@H](Cc2ccc(C(F)(F)F)cc2)N2CCCCC[C@@H](C2=O)N(C)C(=O)CN(C)C1=O [PP0655],1900,B (a compound having 3 or more and less than 10 is denoted as B),B (a compound having 3 or more and less than 10 is denoted as B)
CC[C@H](C)[C@@H]1NC(=O)[C@H](CC)N(C)C(=O)C[C@@H](C(=O)N(C)C)N(C)C(=O)[C@H](C2CCCC2)N(C)C(=O)C2(CCC2)NC(=O)[C@@H]2C[C@@H](N3CCC(F)(F)CC3)CN2C(=O)[C@H](CCc2cc(F)c(C(F)(F)F)c(F)c2)NC(=O)CN(C)C(=O)[C@H](Cc2ccc(C(F)(F)F)cc2)N2CCCC[C@@H](C2=O)N(C)C(=O)CN(C)C1=O [PP0656],39,C (A compound having a KD ratio of 0.1 or more and less than 3 is denoted as C),C (A compound having a KD ratio of 0.1 or more and less than 3 is denoted as C)
CC[C@H](C)[C@@H]1NC(=O)[C@H](CC)N(C)C(=O)C[C@@H](C(=O)N(C)C)N(C)C(=O)[C@H](C2CCCC2)N(C)C(=O)C2(CCC2)NC(=O)[C@@H]2CCN2C(=O)[C@H](CCc2cc(F)c(C(F)(F)F)c(F)c2)NC(=O)CN(C)C(=O)[C@H](Cc2ccc(C(F)(F)F)cc2)N2CCCC[C@@H](C2=O)N(C)C(=O)CN(C)C1=O [PP0657],76,B (a compound having 3 or more and less than 10 is denoted as B),B (a compound having 3 or more and less than 10 is denoted as B)
CC[C@H](C)[C@@H]1NC(=O)[C@H](CC)N(C)C(=O)C[C@@H](C(=O)N(C)C)N(C)C(=O)[C@H](C2CCCC2)N(C)C(=O)C2(CCC2)NC(=O)[C@@H]2CCCCN2C(=O)[C@H](CCc2cc(F)c(C(F)(F)F)c(F)c2)NC(=O)CN(C)C(=O)[C@H](Cc2ccc(C(F)(F)F)cc2)N2CCCC[C@@H](C2=O)N(C)C(=O)CN(C)C1=O [PP0658],34,C (A compound having a KD ratio of 0.1 or more and less than 3 is denoted as C),B (a compound having 3 or more and less than 10 is denoted as B)
CC[C@H](C)[C@@H]1NC(=O)[C@H](CC)N(C)C(=O)C[C@@H](C(=O)N(C)C)N(CC)C(=O)[C@H](C2CCCC2)N(C)C(=O)C2(CCC2)NC(=O)[C@@H]2C[C@H](N3CCC(F)(F)CC3)CN2C(=O)[C@H](CCc2cc(F)c(C(F)(F)F)c(F)c2)NC(=O)CN(C)C(=O)[C@H](Cc2ccc(C(F)(F)F)cc2)N2CCCC[C@@H](C2=O)N(C)C(=O)CN(C)C1=O [PP0659],420,B (a compound having 3 or more and less than 10 is denoted as B),B (a compound having 3 or more and less than 10 is denoted as B)
CC[C@H](C)[C@@H]1NC(=O)[C@H](CC)N(C)C(=O)C[C@@H](C(=O)N(C)C)N(CC)C(=O)[C@H](C2CCCC2)N(C)C(=O)C2(CCC2)NC(=O)[C@@H]2CCN2C(=O)[C@H](CCc2cc(F)c(C(F)(F)F)c(F)c2)NC(=O)CN(C)C(=O)[C@H](Cc2ccc(C(F)(F)F)cc2)N2CCCC[C@@H](C2=O)N(C)C(=O)CN(C)C1=O [PP0660],290,B (a compound having 3 or more and less than 10 is denoted as B),B (a compound having 3 or more and less than 10 is denoted as B)
CC[C@H](C)[C@@H]1NC(=O)[C@H](CC)N(C)C(=O)C[C@@H](C(=O)N(C)C)N(CC)C(=O)[C@H](C2CCCC2)N(C)C(=O)C2(CCC2)NC(=O)[C@@H]2CCCCN2C(=O)[C@H](CCc2cc(F)c(C(F)(F)F)c(F)c2)NC(=O)CN(C)C(=O)[C@H](Cc2ccc(C(F)(F)F)cc2)N2CCCC[C@@H](C2=O)N(C)C(=O)CN(C)C1=O [PP0661],340,C (A compound having a KD ratio of 0.1 or more and less than 3 is denoted as C),B (a compound having 3 or more and less than 10 is denoted as B)
CC[C@H](C)[C@@H]1NC(=O)[C@H](CC(C)C)N(C)C(=O)C[C@@H](C(=O)N2CCOCC2)N(C)C(=O)[C@H](C2CCCC2)N(C)C(=O)C2(CCCC2)NC(=O)[C@@H]2[C@@H](O)CCN2C(=O)[C@H](CCc2cc(F)c(C(F)(F)F)c(F)c2)NC(=O)CN(C)C(=O)[C@H](Cc2ccc(C(F)(F)F)cc2)N2CCCCC[C@@H](C2=O)N(C)C(=O)CN(C)C1=O [PP0662],3100,B (a compound having 3 or more and less than 10 is denoted as B),B (a compound having 3 or more and less than 10 is denoted as B)
CCO[C@@H]1C[C@H]2C(=O)NC3(CCC3)C(=O)N(C)[C@@H](C3CCCC3)C(=O)N(C)[C@H](C(=O)N(C)C)CC(=O)N(C)[C@@H](CC)C(=O)N[C@@H]([C@@H](C)CC)C(=O)N(C)CC(=O)N(C)[C@H]3CCCCCN(C3=O)[C@@H](Cc3ccc(C(F)(F)F)cc3)C(=O)N(C)CC(=O)N[C@@H](CCc3cc(F)c(C(F)(F)F)c(F)c3)C(=O)N2C1 [PP0663],280,B (a compound having 3 or more and less than 10 is denoted as B),B (a compound having 3 or more and less than 10 is denoted as B)
C=CC[C@H]1C(=O)N[C@@H]([C@@H](C)CC)C(=O)N(C)CC(=O)N(C)[C@H]2CCCCCN(C2=O)[C@@H](Cc2ccc(C(F)(F)F)cc2)C(=O)N(C)CC(=O)N[C@@H](CCc2cc(F)c(C(F)(F)F)c(F)c2)C(=O)N2C[C@H](OCC)C[C@H]2C(=O)NC2(CCC2)C(=O)N(C)[C@@H](C2CCCC2)C(=O)N(C)[C@H](C(=O)N(C)C)CC(=O)N1C [PP0665],240,B (a compound having 3 or more and less than 10 is denoted as B),B (a compound having 3 or more and less than 10 is denoted as B)
C#CC[C@H]1C(=O)N[C@@H]([C@@H](C)CC)C(=O)N(C)CC(=O)N(C)[C@H]2CCCCCN(C2=O)[C@@H](Cc2ccc(C(F)(F)F)cc2)C(=O)N(C)CC(=O)N[C@@H](CCc2cc(F)c(C(F)(F)F)c(F)c2)C(=O)N2C[C@H](OCC)C[C@H]2C(=O)NC2(CCC2)C(=O)N(C)[C@@H](C2CCCC2)C(=O)N(C)[C@H](C(=O)N(C)C)CC(=O)N1C [PP0666],330,B (a compound having 3 or more and less than 10 is denoted as B),B (a compound having 3 or more and less than 10 is denoted as B)
CCO[C@@H]1C[C@H]2C(=O)NC3(CCC3)C(=O)N(C)[C@@H](C3CCCC3)C(=O)N(C)[C@H](C(=O)N(C)C)CC(=O)N(C)[C@@H](CC3CC3)C(=O)N[C@@H]([C@@H](C)CC)C(=O)N(C)CC(=O)N(C)[C@H]3CCCCCN(C3=O)[C@@H](Cc3ccc(C(F)(F)F)cc3)C(=O)N(C)CC(=O)N[C@@H](CCc3cc(F)c(C(F)(F)F)c(F)c3)C(=O)N2C1 [PP0667],270,B (a compound having 3 or more and less than 10 is denoted as B),B (a compound having 3 or more and less than 10 is denoted as B)
CCO[C@@H]1C[C@H]2C(=O)NC3(CCC3)C(=O)N(C)[C@@H](C3CCCC3)C(=O)N(C)[C@H](C(=O)N(C)C)CC(=O)N(C)[C@@H](CC3CCC3)C(=O)N[C@@H]([C@@H](C)CC)C(=O)N(C)CC(=O)N(C)[C@H]3CCCCCN(C3=O)[C@@H](Cc3ccc(C(F)(F)F)cc3)C(=O)N(C)CC(=O)N[C@@H](CCc3cc(F)c(C(F)(F)F)c(F)c3)C(=O)N2C1 [PP0668],380,B (a compound having 3 or more and less than 10 is denoted as B),B (a compound having 3 or more and less than 10 is denoted as B)
CCO[C@@H]1C[C@H]2C(=O)NC3(CCC3)C(=O)N(C)[C@@H](C3CCCC3)C(=O)N(C)[C@H](C(=O)N(C)C)CC(=O)N(C)[C@@H](Cc3cccnc3)C(=O)N[C@@H]([C@@H](C)CC)C(=O)N(C)CC(=O)N(C)[C@H]3CCCCCN(C3=O)[C@@H](Cc3ccc(C(F)(F)F)cc3)C(=O)N(C)CC(=O)N[C@@H](CCc3cc(F)c(C(F)(F)F)c(F)c3)C(=O)N2C1 [PP0673],120,B (a compound having 3 or more and less than 10 is denoted as B),B (a compound having 3 or more and less than 10 is denoted as B)
